# Laboratory results: US20100248365A1, “GANGLIOSIDE BIOSYNTHESIS MODULATORS” (ZACHARON PHARMACEUTICALS, INC., priority 2009, published 2010)
# Biological target: T1, ST3Gal 1 (rat recombinant a 2,3-Sialytransferase) (Rattus norvegicus, UniProt Q6H8N0)
# T1 sequence (Q6H8N0 1-340): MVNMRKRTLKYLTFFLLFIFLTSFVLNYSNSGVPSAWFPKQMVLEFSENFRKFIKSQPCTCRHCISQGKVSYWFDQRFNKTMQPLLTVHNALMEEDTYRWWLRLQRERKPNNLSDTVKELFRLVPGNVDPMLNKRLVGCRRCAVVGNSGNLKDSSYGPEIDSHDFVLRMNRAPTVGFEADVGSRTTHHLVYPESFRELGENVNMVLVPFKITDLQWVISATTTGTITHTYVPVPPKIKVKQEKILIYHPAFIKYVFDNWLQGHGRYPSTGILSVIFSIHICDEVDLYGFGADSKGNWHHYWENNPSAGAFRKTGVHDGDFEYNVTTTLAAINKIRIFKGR
# Assay: ST3Gal 1 assay with 2AA-labeled GSL standards, HPLC readout
# Format: biochemical
# Conditions: b350 ties FIG. 5/6 (compound 1) to the ST3Gal 1 assay
# Protocol: The enzyme ST3Gal 1 (rat recombinant a 2,3-Sialytransferase) assay was carried out with 2AA-labeled GSL standards as substrate. The complete incubation mixture contained the following components in a final volume of 20 ul: 50 mM cacodylate buffer, pH6.2, 10 mM MgCl2, 0.2% TX100, 2 mM CMP-sialic acid (CMP-SA), 100 ng 2AA-GM1/GD1b, 10 μU of ST3Gal1 enzyme. The reaction was carried out @37° C. for 30 min. Control reactions were done without CMP-SA. The reaction was analyzed by HPLC as described above. The % of product conversion was assessed by comparison to control samples. The enzyme titration curve was determined from 10, 3, 1, 0.3 and 0.1 μU of enzyme. The time course was determined using 10 μU of the enzyme, @ 0, 5, 10, 15, 30, 45, 60, 90, and 120 min. […] FIG. 5 illustrates the activity of late stage selective ganglioside inhibitors.
compound,measurement,value
"Cc1nn(-c2ccccc2)c(C)c1C=NN1CCN(Cc2ccccc2Cl)CC1 [compound 1, 4-(2-chlorobenzyl)-N-((3,5-dimethyl-1-phenyl-1H-pyrazol-4-yl)methylene)piperazin-1-amine]",inhibition of ST3Gal 1 enzyme activity (FIG. 5),inhibition
